Reference: US20030138374A1, “Image diagnosis probe based on substituted azobenzene or analogue thereof for disease attributable to amyloid accumulation and composition for image diagnosis containing the same” (priority 2000, published 2003)
Read-outs that look alike come from different tables or passages of the source.

Legend:
amyloid β protein = biological target: T1, amyloid β protein (Homo sapiens, UniProt P05067); assay: β structure recognition of amyloid β protein (thioflavin T fluorescence); type: binding; details: for β structure recognition (%) at 1 µM: read-out: β Structure recognition (%); for β structure recognition (in words): comment on Table I
T1 construct: the amyloid β protein (purchased from Peptide Laboratory) was dissolved in a potassium phosphate buffer (pH7.4); purchased Peptide Laboratory
Method: (1) Method of Quantifying the Amyloid β Protein Having β Sheet Structure—method of Measuring of Recognition of β Structure in a Test Compound
Then, each 100 microliters of thioflavin T (which emits fluorescence depending on an extent of β structure of the amyloid β protein) dissolved in a glycine-NaOH buffer (pH 8.5) was added (final concentration 3 μM), and the fluorescence was immediately measured with a fluorescent microplate reader (manufactured by Molecular Device, Model fmax) at an excitation wavelength of 442 nm and a measurement wavelength of 485 nm. When the fluorescence of thioflavin alone was regarded as A, the fluorescence under the coexistence of the amyloid β protein and thioflavin T was regarded as B, and the fluorescence under the coexistence of the amyloid β protein, thioflavin T and a test compound was regarded as C, the recognition of β structure for the test compound was calculated by the following formula (unless otherwise indicated, the concentration of a test compound was 1 μM):
β structure recognition for test compound (%)={(B−C)/(B−A)}×100

[1] = Distribution coefficient between water/1-octanol; type: physicochemical; details: 1-octanol / aqueous phase, pH 5
insulin = biological target: T2, insulin (Homo sapiens, UniProt P01308); assay: Insulin β structure recognition (thioflavin T fluorescence); type: binding; details: insulin 0.1 mg/ml with β structure; average of two measurements; read-out: Insulin β sheet structure recognition EC50
T2 construct: insulin (purchased from Sigma) was dissolved in deionized water; purchased Sigma
Excerpt: (2)Method of Measuring Insulin β Structure Recognition
It is known that proteins having β sheet structure such as insulin, amylin, etc are present in the human body in addition to the amyloid β protein (Burket et al., Biochemistry, vol. 11, p. 2435-2439, 1972; Ashburn et al, Chemistry and Biology, vol. 3, p. 351-358, 1996). It is desirable that a probe for diagnosing diseases in which amyloid is accumulated, including Alzheimer's disease by recognizing the amyloid protein, has the higher affinity with the amyloid β protein and has the lower affinity with other proteins having β sheet structure. Then, the affinity of each compound to insulin having β structure was measured.
A method of quantifying β sheet structure of insulin in vitro was slightly modified to be used in the test of the present invention, with reference to the report by Klunk et al. (Journal of Histochemistry and Cytochemistry, vol.37, p.1237-1281, 1989). That is, insulin (purchased from Sigma) was dissolved in deionized water, adjusted to pH2 with hydrochloric acid, heated at 92° C. for 10 minutes, and cooled in a dry ice/ethanol cooling bath. Thereafter, heating at 92° C. for 3 minutes and cooling in a dry ice/ethanol cooling bath were repeated 7 or 8 times. This insulin solution was further diluted to 0.1 mg/ml with a phosphate buffer (pH 7.4) , and dispensed in a 96-well microplate at each volume of 50 microliters. A test compound dissolved in deionized water was dispensed at a volume of 50 microliters, and thiofravin T (emitting fluorescence depending on an extent of β structure) dissolved in a glycine-NaOH buffer (pH 8.5) was dispensed at each volume of 100 microliters, and then the fluorescent extent was measured with a fluorescent microplate reader (manufactured by Molecular Device, Model fmax) at an excitation wavelength of 442 nm and a measurement wavelength of 485 nm. When the fluorescence of thioflavin T alone was regarded as D, the fluorescence under the coexistence of insulin and thioflavin T was regarded as E, and the fluorescence under the coexistence of insulin, thioflavin T and a test compound was regarded as F, the insulin β structure recognition for the test compound was calculated by the following formula:
Insulin β structure recognition for test compound (%) ={(E−F)/(E−D)}×100
based on this value, by using the BSAS (Biological Statistical Analysis System) statistic program the 50% effective concentration (EC50) for recognizing an insulin β sheet structure for the test compound was obtained.

[2] = Distribution coefficient between water/1-octanol; type: physicochemical; details: for Distribution coefficient: 1-octanol / phosphate buffer (pH 7.3) or ultra-pure water; for Distribution coefficient (in words): comment on Table I
Method: As an oily phase, 1-octanol was used and, as an aqueous phase, a phosphate buffer (pH 7.3) or ultra-pure water was used. A suitable amount of a test compound was dissolved in an oily phase or an aqueous phase, and both phases were placed in the same test tube, and shaken vigorously at room temperature for 30 minutes. After allowing to stand at room temperature over 1 hour, centrifugation at 2000 rpm for 10 minutes was carried out, followed by further standing at room temperature for 1 hour. The aqueous phase and the oily phase were sampled, respectively, and transferred to a 96-well microplate. By using a microplate reader (manufactured by Molecular Device, Model Spectramax 250), the absorbance was measured at a maximum absorbing wavelength for each test compound, and the concentration of the test compound was calculated from a calibration curve previously obtained. A distribution coefficient was calculated by the following formula. Distribution coefficient for test compound =(concentration of test compound in oily phase)/(concentration of test compound in aqueous phase) As the distribution coefficient becomes larger, it can be said that the blood-brain barrier permeability for the test compound is higher.

[3] = test compound 1 μM, thioflavin T 3 μM, average of duplicated experiments

T2 sequence (P01308 25-54 limits assumed, species assumed): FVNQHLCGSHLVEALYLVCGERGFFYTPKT
T2 sequence (P01308 90-110 limits assumed, species assumed): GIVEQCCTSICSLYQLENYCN
T1 sequence (P05067 672-711 limits assumed): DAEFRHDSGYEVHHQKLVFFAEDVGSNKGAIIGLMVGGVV

| β structure recognition (%) at 1 µM (amyloid β protein; [3]) | Distribution coefficient [1] | EC50 (insulin) | β structure recognition (in words) (amyloid β protein) | β Structure recognition (%) (amyloid β protein; [3]) | Distribution coefficient [2] | Distribution coefficient (in words) [2] | SMILES | β structure recognition (%) at 1 µM (amyloid β protein) |
| --- | --- | --- | --- | --- | --- | --- | --- | --- |
| 96.9% |  | 449 nM | highly recognize β structure |  |  |  | CN(C)c1ccc(/N=C2\C=CC(=O)c3ccccc32)cc1 [SA-244, Indophenol Blue] |  |
| 87.2% |  | 38 nM | highly recognize β structure |  |  |  | CCN(CC)c1ccc(/N=N/c2ccc(Br)cn2)c(O)c1 [SA-147] |  |
| 78.5% |  |  | highly recognize β structure |  | 87 | high distribution coefficients | CCN(CC)c1ccc(/C=C/c2cccc(/C=C/c3ccc(N(CC)CC)cc3)[n+]2C)cc1 [BF-064] |  |

The next lines start with the compound.

| SMILES | β structure recognition (%) at 1 µM (amyloid β protein; [3]) | Distribution coefficient [1] | EC50 (insulin) | β structure recognition (in words) (amyloid β protein) | β Structure recognition (%) (amyloid β protein; [3]) | Distribution coefficient [2] | Distribution coefficient (in words) [2] | β structure recognition (%) at 1 µM (amyloid β protein) |
| --- | --- | --- | --- | --- | --- | --- | --- | --- |
| O=C(O)c1cc(/N=N/c2ccc(-c3ccc(/N=N/c4ccc(O)c(C(=O)O)c4)cc3)cc2)ccc1O [Chrysamine G, reference compound] | 66.8% | 9.7 (pH 5) | 253 nM |  |  |  |  |  |
| CN(C)c1ccc(/N=N/c2ccc(N=C=S)cc2)cc1 [SA-239, 4-((4-isothiocyanatphenyl)azo)-N,N-dimethylaniline] |  |  | 120 nM | highly recognize β structure |  |  |  | 83.3% |
| CCN(CC)c1ccc(/N=C/c2ccc(N(CC)CC)cc2O)cc1 [Compound N-058, 5-(diethylamino)-2-({[4-(diethylamino)phenyl]imino}methyl)phenol] |  |  | 129 nM | highly recognize β structure | 93.6% |  |  |  |
| CN(C)c1ccc(/C=C/c2cccc(/C=C/c3ccc(N(C)C)cc3)[n+]2C)cc1.[I-] [Compound N-039, N-[4-(2-{6-[4-(dimethylamino)styryl]-1-methylpiridinium-2-yl}vinyl)phenyl]-N-methylmethanamine] | 97.7% |  | 113 nM | highly recognize β structure |  | 35 | high distribution coefficients |  |
| Nc1c(/N=N/c2ccc(-c3ccc(/N=N/c4cc(S(=O)(=O)O)c5ccccc5c4N)cc3)cc2)cc(S(=O)(=O)O)c2ccccc12 [Congo red, reference compound] | 89.3% |  | 153 nM |  |  |  |  |  |
